Experimental data: patent US20170015555A1, “LONG-TERM PRESERVATION AND NOVEL APPLICATION OF CHLOROUS ACID AQUEOUS SOLUTION FORMULATION” (priority 2013, published 2017)

Test system: Microbes of the genus Salmonella: Salmonella Enteritidis IF03313
Format: cell-based
Conditions: stored at 25° C. Day 7; 1000 ppm available chlorine
Text: 1) Chlorous acid aqueous solution formulation (see Example 1: Table 11) Treatment sheet (material: 100% cotton): (about 27×40 cm) *Impregnated at a ratio of weight of treatment sheet (g): amount of liquid (ml)=1:3 2) Imitation vomit Miso solution: adjusted to pH of 2 with hydrochloric acid 3) Test Microbes that were Used E. coli: Escherichia coli IF03927 Staphylococcus aureus: Staphylococcus aureus IF0 12732 Thermoduric Microbes (Bacillus cereus): Bacillus cereus NBRC15305 Microbes of the genus Salmonella: Salmonella Enteritidis IF03313 Enterohemorrhagic Escherichia coli O157: Escherichia coli O157 Enterohemorrhagic Escherichia coli O111: Escherichia coli O111 Enterohemorrhagic Escherichia coli O26: Escherichia coli O26
(1) Imitation vomit was spread in an area about the size of an A4 sheet. (2) 5 dry sheets were laid thereon. (3) An agent solution was poured on the dry sheets to wipe off the imitation vomit. (4) A cotton swab was soaked with sterile saline. A portion where imitation vomit was spread was scrubbed with the cotton swab to collect microbes remaining on the floor. After suspending in saline, the solution was spread on a petri dish and cultured. The number of each of the microbes was measured. (5) Test operations 3 and 4 were repeated a total of 7 times (repeated until the imitation vomit could be removed completely).

[Na] [Sodium]
<10: Number of Times Wiped 1 Time (remaining microbes) | Number of Times Wiped 2 Times (remaining microbes) | Number of Times Wiped 3 Times (remaining microbes)
